Results reported in patent publication US11141432B2, “Materials and methods for increasing immune responses” (Mayo Foundation for Medical Education and Research, priority 2016, dated 2021).
Where a SMILES comes first, the peptide text is derived from it. The star is where a group is joined. Cbz = O=C(OCc1ccccc1)*; CH2F = FC*

How the values were obtained:
[1] = test system: CD8+ T cells obtained from OT-1 PL Rag−/− TCR transgenic mice; test: Proliferation, clonal expansion and apoptosis of antigen-stimulated CD8+ T cells; assay type: cell-based
Procedure: (§1) Naïve or resting CD8+ T cells obtained from OT-1 PL Rag−/− TCR transgenic mice were stimulated in vitro with its cognate antigen in the presence of B7.1 co-stimulatory molecule, and cytokine IL-12 for 48h. The antigen constitutes sulfate latex microspheres (Life Technologies Cat. No. S37227) bearing DimerX Ig-recombinant dimeric mouse H-2Kb: Ig fusion protein (BD Biosciences, Cat. No. 550750) with recombinant mouse B7-1/CD80 Fc chimeric protein (R&D Systems, Cat. No. 740-B). Short synthetic peptide SIINFEKL (SEQ ID NO:1) at 10 nM concentration (sequence derived from a chicken ovalbumin protein), presented by H-2Kb DimerX serves as the cognate antigen for TCR of CD8+ T cells from OT-1 PL Rag−/−TCR transgenic mice. CD8+ T cells isolated from lymph nodes and/or spleen were stimulated with antigen in the following culture medium: Glutamine-free RPMI (Corning CellGro, Cat. No. 15-040-CV) supplemented with FBS 10%, HEPES 10 mM, NEAA 1 mM, sodium pyruvate 1 mM, glutamine 2 mM, 2-mercaptoethanol 50 μM, and Pen/Strep. T cells were cultured in flat-bottom 96-well plates at 2×105/0.2 ml/well with microspheres at the ratio of 5:1. Genipin was added at 50 μM concentration (based on dose titration that produces minimal cell death) and preincubated with cells for 45 mins before subjecting the CD8+ T cells to antigen stimulation. The CD8+ T cells are cultured and harvested at 4 hours to 48 hours for evaluation by molecular, physiologic and phenotypic characteristics by standard methodologies like flow cytometry based phenotyping, lysis for protein or mRNA derivation using western blot, PCR and metabolic flux analysis. Signal one was provided by MHC Class I (H-2Kb) dimers bearing 1-10 nM of OT-1 cognate peptide (SIINFEKL; SEQ ID NO:1) (Ag). Signal two was provided by 1 μg/ml of recombinant murine B7.1 (co-stimulation) immobilized on inert latex microspheres (serves as artificial antigen presenting cells) in the presence of the third signal; 2 ng/ml of rmIL-12 (cytokine). For antigen stimulation, the naïve T cells and latex microspheres were reacted at a ratio of 5:1 (T cells: microspheres) for various time points and were evaluated for their molecular, physiologic and phenotypic characteristics by standard methodologies including flow cytometry, western blot, PCR and metabolic flux analysis (FIG. 1). To determine whether UCP2 plays a role in antigen induced ROS generation and determine its impact on CD8+ T cell clonal expansion, antigen induced cytoplasmic (CROS) and/or mitochondrial ROS (mROS) production was evaluated by CM-H2DCFDA and MitoSox staining and flow cytometry analysis, respectively. Genetic (si-UCP2) or pharmacological (Genipin) means were used to block UCP2 function.

[2] = test system: antigen stimulated OT-1 cells; test: Antigen-induced cytoplasmic and mitochondrial ROS by CM-H2DCFDA and MitoSox staining and flow cytometry; assay type: cell-based, mice
Procedure: Naïve or resting CD8+ T cells obtained from OT-1 PL Rag−/− TCR transgenic mice were stimulated in vitro with its cognate antigen in the presence of B7.1 co-stimulatory molecule, and cytokine IL-12 for 48h. The antigen constitutes sulfate latex microspheres (Life Technologies Cat. No. S37227) bearing DimerX Ig-recombinant dimeric mouse H-2Kb: Ig fusion protein (BD Biosciences, Cat. No. 550750) with recombinant mouse B7-1/CD80 Fc chimeric protein (R&D Systems, Cat. No. 740-B). Short synthetic peptide SIINFEKL (SEQ ID NO:1) at 10 nM concentration (sequence derived from a chicken ovalbumin protein), presented by H-2Kb DimerX serves as the cognate antigen for TCR of CD8+ T cells from OT-1 PL Rag−/−TCR transgenic mice. CD8+ T cells isolated from lymph nodes and/or spleen were stimulated with antigen in the following culture medium: Glutamine-free RPMI (Corning CellGro, Cat. No. 15-040-CV) supplemented with FBS 10%, HEPES 10 mM, NEAA 1 mM, sodium pyruvate 1 mM, glutamine 2 mM, 2-mercaptoethanol 50 μM, and Pen/Strep. […] To determine whether UCP2 plays a role in antigen induced ROS generation and determine its impact on CD8+ T cell clonal expansion, antigen induced cytoplasmic (CROS) and/or mitochondrial ROS (mROS) production was evaluated by CM-H2DCFDA and MitoSox staining and flow cytometry analysis, respectively. […]

CD8+ T cells [3] = test: Lipid content / de novo lipid synthesis in antigen-stimulated CD8+ T cells; assay type: cell-based, mice
Procedure: Naïve or resting CD8+ T cells obtained from OT-1 PL Rag−/− TCR transgenic mice were stimulated in vitro with its cognate antigen in the presence of B7.1 co-stimulatory molecule, and cytokine IL-12 for 48h. The antigen constitutes sulfate latex microspheres (Life Technologies Cat. No. S37227) bearing DimerX Ig-recombinant dimeric mouse H-2Kb: Ig fusion protein (BD Biosciences, Cat. No. 550750) with recombinant mouse B7-1/CD80 Fc chimeric protein (R&D Systems, Cat. No. 740-B). Short synthetic peptide SIINFEKL (SEQ ID NO:1) at 10 nM concentration (sequence derived from a chicken ovalbumin protein), presented by H-2Kb DimerX serves as the cognate antigen for TCR of CD8+ T cells from OT-1 PL Rag−/−TCR transgenic mice. CD8+ T cells isolated from lymph nodes and/or spleen were stimulated with antigen in the following culture medium: Glutamine-free RPMI (Corning CellGro, Cat. No. 15-040-CV) supplemented with FBS 10%, HEPES 10 mM, NEAA 1 mM, sodium pyruvate 1 mM, glutamine 2 mM, 2-mercaptoethanol 50 μM, and Pen/Strep. T cells were cultured in flat-bottom 96-well plates at 2×105/0.2 ml/well with microspheres at the ratio of 5:1. Genipin was added at 50 μM concentration (based on dose titration that produces minimal cell death) and preincubated with cells for 45 mins before subjecting the CD8+ T cells to antigen stimulation. […]

CD8+ T cells [4] = test: Phenotyping of effector differentiation markers and transcription factors in CD8+ T cells; assay type: cell-based, mice; settings: CD8+ T cells treated with Genipin
Procedure: as §1, with “1).” for “1). To determine whether UCP2 plays a role in antigen induced ROS generation and determine its impact on CD8+ T cell clonal expansion, antigen induced cytoplasmic (CROS) and/or mitochondrial ROS (mROS) production was evaluated by CM-H2DCFDA and MitoSox staining and flow cytometry analysis, respectively. Genetic (si-UCP2) or pharmacological (Genipin) means were used to block UCP2 function.”

CD8+ T cells [5] = test: Metabolic flux analysis (ECAR/OCR, spare respiratory capacity) of antigen-stimulated CD8+ T cells; assay type: cell-based, mice; settings: antigen stimulation in the presence of Genipin, FIG. 4A
Procedure: Naïve or resting CD8+ T cells obtained from OT-1 PL Rag−/− TCR transgenic mice were stimulated in vitro with its cognate antigen in the presence of B7.1 co-stimulatory molecule, and cytokine IL-12 for 48h. The antigen constitutes sulfate latex microspheres (Life Technologies Cat. No. S37227) bearing DimerX Ig-recombinant dimeric mouse H-2Kb: Ig fusion protein (BD Biosciences, Cat. No. 550750) with recombinant mouse B7-1/CD80 Fc chimeric protein (R&D Systems, Cat. No. 740-B). Short synthetic peptide SIINFEKL (SEQ ID NO:1) at 10 nM concentration (sequence derived from a chicken ovalbumin protein), presented by H-2Kb DimerX serves as the cognate antigen for TCR of CD8+ T cells from OT-1 PL Rag−/−TCR transgenic mice. CD8+ T cells isolated from lymph nodes and/or spleen were stimulated with antigen in the following culture medium: Glutamine-free RPMI (Corning CellGro, Cat. No. 15-040-CV) supplemented with FBS 10%, HEPES 10 mM, NEAA 1 mM, sodium pyruvate 1 mM, glutamine 2 mM, 2-mercaptoethanol 50 μM, and Pen/Strep. […] For antigen stimulation, the naïve T cells and latex microspheres were reacted at a ratio of 5:1 (T cells: microspheres) for various time points and were evaluated for their molecular, physiologic and phenotypic characteristics by standard methodologies including flow cytometry, western blot, PCR and metabolic flux analysis (FIG. 1).

[6] = UCP2 inhibited OT-1 cells, FIG. 3C

Question: CC1(C)CC(NC(=O)C[P+](c2ccccc2)(c2ccccc2)c2ccccc2)CC(C)(C)N1[O] [MitoTempo] was tested. Which “cell proliferation and cell contraction after quenching of mitochondrial ROS” value [1, 6] did it give?
Answer: restored

Question: And the “mitochondrial ROS after quenching with mitochondrially targeted antioxidant” value [2, 6]?
Answer: reverses ROS

Question: Which “lipid synthesis on blocking cytoplasmic export of citrate from the mitochondria” value (CD8+ T cells [3]; UCP2 inhibited cells, FIG. 4D) does the source give for SML0068 here?
Answer: reduced lipid synthesis

Question: With CC(NC(=O)C(NC(=O)OCc1ccccc1)C(C)C)C(=O)NC(CC(=O)O)C(=O)CF (stereo not drawn) [ZVAD] (Cbz-Val-Ala-Asp-CH2F; configuration not given here) as the compound, how does the “Genipin-induced contraction in clonal expansion on addition of pan caspase inhibitor” value ([1]; added to Genipin treated cells, FIG. 3B) read?
Answer: can be reversed

Question: With COC(=O)C1=CO[C@@H](O)[C@@H]2C(CO)=CC[C@H]12 [Genipin] as the compound, how does the “proliferation of activated CD8+ T cells” value ([1]; Genipin treated, 50 μM, FIG. 3A) read?
Answer: limited proliferation

Question: What about the “apoptosis (contraction in clonal expansion)” value ([1]; Genipin treated, FIG. 3B) of the same compound?
Answer: increased apoptosis

Question: And the “PD-1 and Lag3 expression” value (CD8+ T cells [4])?
Answer: increases

Question: And the Blimp1/BC16 ratio (CD8+ T cells [4]; FIG. 5)?
Answer: increasing

Question: And the Tbet/Eomes ratio (CD8+ T cells [4]; FIG. 5)?
Answer: increasing

Question: What about the “expression of IFNγ, Gzmb, and effector cell markers KLRG1 and CXCR3” value (CD8+ T cells [4]; FIG. 5) of the same compound?
Answer: increased expression

Question: And the “mitochondrial reactive oxygen species (ROS)” value ([2]; Genipin treated)?
Answer: increase

Question: What about the “ECAR/OCR ratio (glycolysis over mitochondrial respiration)” value (CD8+ T cells [5]) of the same compound?
Answer: higher

Question: What about the “spare respiratory capacity (SRC)” value (CD8+ T cells [5]) of the same compound?
Answer: very low

Question: What about the “lipid content (de novo lipid synthesis)” value (CD8+ T cells [3]; antigen stimulation in the presence of Genipin, FIG. 4B) of the same compound?
Answer: increased lipid content
